We go through 14 compounds from ChEMBL document CHEMBL1131754, “2-heterosubstituted-3-(4-methylsulfonyl)phenyl-5-trifluoromethyl pyridines as selective and orally active cyclooxygenase-2 inhibitors” (Bioorg Med Chem Lett, 1999).

Series [1] addresses T1, Prostaglandin G/H synthase 1 (Homo sapiens, UniProt P23219). As to the kind of experiment: In vitro inhibitory concentration required against Cyclooxygenase-1 (COX-1) determined in human whole blood (HWB) assay. Type of series: tissue-based.
The target in series [2] is T2, Prostaglandin G/H synthase 2 (Homo sapiens, UniProt P35354).
T2 sequence (P35354 whole entry): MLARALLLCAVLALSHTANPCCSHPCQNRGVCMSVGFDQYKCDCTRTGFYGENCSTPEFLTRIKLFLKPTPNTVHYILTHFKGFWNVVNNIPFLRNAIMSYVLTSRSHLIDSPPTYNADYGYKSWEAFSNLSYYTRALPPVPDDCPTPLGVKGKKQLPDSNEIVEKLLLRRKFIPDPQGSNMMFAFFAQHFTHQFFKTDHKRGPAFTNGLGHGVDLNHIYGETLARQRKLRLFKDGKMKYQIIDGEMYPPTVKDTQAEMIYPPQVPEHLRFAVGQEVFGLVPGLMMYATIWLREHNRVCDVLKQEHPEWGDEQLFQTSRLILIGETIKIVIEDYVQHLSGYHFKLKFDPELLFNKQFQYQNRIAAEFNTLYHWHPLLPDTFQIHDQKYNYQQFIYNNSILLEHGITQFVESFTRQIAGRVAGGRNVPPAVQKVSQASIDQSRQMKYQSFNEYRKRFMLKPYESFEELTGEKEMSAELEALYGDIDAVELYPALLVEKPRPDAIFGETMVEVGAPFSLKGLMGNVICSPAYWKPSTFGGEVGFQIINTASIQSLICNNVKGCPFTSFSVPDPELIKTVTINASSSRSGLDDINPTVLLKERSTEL
Type of series: cell-based, CHO whole.
Description: Inhibition of Prostaglandin G/H synthase 2 in CHO whole cell assay

Series [3] deals with T2, Prostaglandin G/H synthase 2.
Description: Inhibition of Prostaglandin G/H synthase 2 in human whole blood (HWB) assay
Series [4] in a line: Half-life in rats with metabolic oxidation. The format is ADME, organism-based. To be noted: rat, in vivo.
The nature of series [5]: Oral bioavailability in rat. The format is ADME, organism-based. The following applies: in vivo.
Series [6] relates to Rattus norvegicus. As to the kind of experiment: Compound was tested in vivo for its efficacy in the rat paw edema assay. The format is functional.
Series [7] concerns Rattus norvegicus. As to the kind of experiment: Compound was tested in vivo for its efficacy in the rat pyresis assay. The format is functional.
For series [8], the system named is Rattus norvegicus. As to the kind of experiment: Compound was tested in vivo for its efficacy in the model of carrageenan-induced hyperalgesia in rats. Type of series: functional. To be noted: read-out: ID50 (the source's name).
The target in series [9] is T1, Prostaglandin G/H synthase 1.
Description: Inhibition of Prostaglandin G/H synthase 1 in human whole blood (HWB) assay
A short description of series [10]: Half-life in rats was determined. The following applies: rat, in vivo. The format is ADME, organism-based.
Series [11] in a line: Half-life in rats. Type of series: ADME, organism-based. To be noted: rat, in vivo.
The nature of series [12]: Maximum concentration in rats at 1-2 hours. Type of series: ADME, organism-based. The following applies: rat, in vivo.
The nature of series [13]: Maximum concentration in rats. The format is ADME, organism-based. To be noted: rat, in vivo.
Series [14] is described as follows: Half life in rats. Type of series: ADME, organism-based. To be noted: rat, in vivo.
A short description of series [15]: Cmax in rats determined 6 hours after oral dosing of 20 mg/kg. Type of series: ADME, organism-based. On the set-up: dose 20 mg/kg, route oral. To be noted: rat, in vivo.

T1 sequence (P23219 whole entry): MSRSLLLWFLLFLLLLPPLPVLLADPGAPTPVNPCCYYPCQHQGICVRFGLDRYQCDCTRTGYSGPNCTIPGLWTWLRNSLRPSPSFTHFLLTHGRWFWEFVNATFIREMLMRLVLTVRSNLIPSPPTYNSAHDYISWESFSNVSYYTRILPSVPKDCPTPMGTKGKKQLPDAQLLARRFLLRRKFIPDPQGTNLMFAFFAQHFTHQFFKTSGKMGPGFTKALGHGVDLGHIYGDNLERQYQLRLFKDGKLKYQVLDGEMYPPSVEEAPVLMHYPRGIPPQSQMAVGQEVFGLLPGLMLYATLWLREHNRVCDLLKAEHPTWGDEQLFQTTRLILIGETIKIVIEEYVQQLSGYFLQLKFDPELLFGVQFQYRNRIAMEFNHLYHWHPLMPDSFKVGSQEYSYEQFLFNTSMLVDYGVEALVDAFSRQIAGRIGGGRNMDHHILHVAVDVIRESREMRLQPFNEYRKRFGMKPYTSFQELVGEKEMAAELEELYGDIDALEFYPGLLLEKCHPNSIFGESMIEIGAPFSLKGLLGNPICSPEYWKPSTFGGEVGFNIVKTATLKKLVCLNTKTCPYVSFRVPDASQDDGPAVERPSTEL

The IC50 is the point on the concentration scale where inhibition reaches its midpoint. Turning to `CS(=O)(=O)c1ccc(-c2cc(C(F)(F)F)cnc2Oc2ccccc2)cc1`, the half-maximal inhibitory concentration (IC50) in series [1] is less than 1240 nM; in series [2] it was less than 200 nM; in [3], less than 400 nM.

A word on the half-life: it is the time in which the quantity being followed falls by half. High values mean slow loss, low ones fast loss. One may read the bioavailability as dose-corrected exposure relative to a reference, in per cent. Read a high bioavailability as much systemic uptake. Compound `C[C@H](CO)Sc1ncc(C(F)(F)F)cc1-c1ccc(S(C)(=O)=O)cc1` returned a half-life in series [4] of less than 2 h. In series [5], the bioavailability is more than 75%. The ED50 is 0.3 mg/kg in the series on Rattus norvegicus [6], 0.3 mg/kg in the series on Rattus norvegicus [7] and 0.65 mg/kg with Rattus norvegicus [8]. Besides, the IC50 was less than 200 nM in series [2], 140 nM in series [3] and 29000 nM in [9].

For the compound `CC(C)(O)CSc1ncc(C(F)(F)F)cc1-c1ccc(S(C)(=O)=O)cc1`, the half-life in series [10] was more than 12 h. In series [5], this compound gave a bioavailability of more than 75%. For the same compound, the ED50 in the series with Rattus norvegicus [6] came out at 1.5 mg/kg; with Rattus norvegicus [7], 0.5 mg/kg.

Usually Cmax stands for the highest concentration seen after dosing. In [11], `CS(=O)(=O)c1ccc(-c2cc(C(F)(F)F)cnc2OCC2(O)CCCC2)cc1` came in with a half-life not above 4 h. In series [5], this compound yielded a bioavailability of more than 75%. The compound further registered a Cmax in series [12] of 9 µM. In addition, the ED50 was determined as 1.8 mg/kg with Rattus norvegicus [6] and 2.2 mg/kg in the series with Rattus norvegicus [7]. 83000 nM corresponded to half-maximal inhibition in series [9] (IC50).

For `CS(=O)(=O)c1ccc(-c2cc(C(F)(F)F)cnc2OCc2ccc(Cl)cc2)cc1`, the figures for the IC50 in series [2], in [3] and in series [9] were less than 200 nM, more than 33000 nM and more than 100000 nM, respectively.

On to `C[C@H](Oc1ncc(C(F)(F)F)cc1-c1ccc(S(C)(=O)=O)cc1)C(C)(C)O`, for which the bioavailability in series [5] was more than 75%. Further, the ED50 with Rattus norvegicus [6] stood at 2.2 mg/kg; in the series with Rattus norvegicus [7], 0.8 mg/kg. Further, the half-inhibitory concentration (IC50) in [2] was less than 200 nM; in series [3] it was 460 nM; in [9], more than 100000 nM.

As for `C[C@]1(O)CCC[C@H]1Oc1ncc(C(F)(F)F)cc1-c1ccc(S(C)(=O)=O)cc1`, the bioavailability in series [5] was more than 75%. Further, the Cmax in series [13] is 9 µM. For the same compound, the values for the ED50 in the series with Rattus norvegicus [6] and with Rattus norvegicus [7] were 0.4 mg/kg and 1.6 mg/kg, respectively. In addition, the half-life in [14] is not above 4 h. The same compound had an IC50 in [9] of more than 100000 nM.

In the case of `CCC(O)(CC)[C@H](C)Oc1ncc(C(F)(F)F)cc1-c1ccc(S(C)(=O)=O)cc1`, the bioavailability in series [5] is more than 75%. For the same compound, the results for the ED50 with Rattus norvegicus [6] and with Rattus norvegicus [7] were 2.8 mg/kg and 1.3 mg/kg, respectively. The half-maximal inhibitory concentration (IC50) in series [2] is less than 200 nM; in series [3], 4700 nM; in series [9] it was more than 100000 nM.

In series [15], `CS(=O)(=O)c1ccc(-c2cc(C(F)(F)F)cnc2OCC(F)(F)F)cc1` showed a maximum concentration (Cmax) of 2.4 µM. For the same compound, the ED50 in the series with Rattus norvegicus [6] was found to be 2.4 mg/kg. Moreover, the IC50 in series [2] is less than 200 nM; in [3], 500 nM; in series [9], more than 100000 nM.

As to `CC(C)(O)COc1ncc(C(F)(F)F)cc1-c1ccc(S(C)(=O)=O)cc1`, the half-life in series [11] was more than 12 h. Also, the bioavailability in series [5] is more than 75%. For the same compound, the values for the ED50 in the series on Rattus norvegicus [6] and with Rattus norvegicus [7] were 1.9 mg/kg and 6.8 mg/kg, respectively. Besides, the concentration for half-maximal inhibition (IC50) was less than 200 nM in series [2], 1000 nM in series [3] and more than 100000 nM in series [9].

In series [10], `CS(=O)(=O)c1ccc(-c2cc(C(F)(F)F)cnc2N2CCCC(CO)C2)cc1` (stereo not drawn) yielded a half-life of less than 2 h. The bioavailability in series [5] is more than 75%. For the same compound, the ED50 in the series on Rattus norvegicus [6] was 1.4 mg/kg; in the series with Rattus norvegicus [7], 0.5 mg/kg. Moreover, the IC50 in [2] was less than 200 nM; in series [3], 800 nM; in series [9], 41000 nM.

Turning to `CS(=O)(=O)c1ccc(-c2cc(C(F)(F)F)cnc2OC(C(F)(F)F)C(F)(F)F)cc1`, the half-inhibitory concentration (IC50) in series [2] is less than 200 nM; in series [3], 500 nM; in [9] it was more than 100000 nM.

In the series on Rattus norvegicus [6], `CS(=O)(=O)c1ccc(-c2cc(Br)sc2-c2ccc(F)cc2)cc1` [DUP-697] showed an ED50 of 1.3 mg/kg.

With `COc1ccc2c(c1)c(CC(=O)O)c(C)n2C(=O)c1ccc(Cl)cc1` [INDOMETHACIN], the values for the ED50 in the series with Rattus norvegicus [6], with Rattus norvegicus [7] and in the series on Rattus norvegicus [8] were 2 mg/kg, 1.1 mg/kg and 1.5 mg/kg, respectively.
